row,Compound,logP
1,CCC(C)CNC(=O)CC(O)C(CC1CCCCC1)NC(=O)C(CCCCNC(=S)NC)NC(=O)C(Cc1ccc2ccccc2c1)Cc1cccc2ccccc12 (stereo unspecified),6.63
2,CCC(C)CNC(=O)CC(O)C(CC(C)C)NC(=O)C(CCCCCNC(=N)N[N+](=O)[O-])NC(=O)C(Cc1ccc2ccccc2c1)Cc1cccc2ccccc12 (stereo unspecified),5.1
3,CNC(=S)NCCCCC(NC(=O)C(Cc1ccccc1)CS(=O)(=O)C(C)(C)C)C(=O)NC(CC1CCCCC1)C(O)CC(=O)NCCN1CCOCC1 (stereo unspecified),2.64
4,CCC(C)CNC(=O)C(F)(F)C(O)C(CC(C)C)NC(=O)C(CCCCNC(=NC#N)SC)NC(=O)C(Cc1ccc2ccccc2c1)Cc1cccc2ccccc12 (stereo unspecified),5.51
5,CCC(C)CC(=O)CC(O)C(CC(C)C)NC(=O)C(CCCCNC(N)=O)NC(=O)C(Cc1ccc2ccccc2c1)Cc1cccc2ccccc12 (stereo unspecified),5.31
6,CSC(=NC#N)NCCCCC(NC(=O)C(Cc1ccc2ccccc2c1)Cc1cccc2ccccc12)C(=O)NC(CC(C)C)C(O)CC(=O)NCCN1CCOCC1 (stereo unspecified),4.67
7,O=CNCC#CCC(NC(=O)C(Cc1cccc2ccccc12)Cc1cccc2ccccc12)C(=O)NC(CC1CCCCC1)C(O)CC(=O)NCCN1CCOCC1 (stereo unspecified),5.44
8,CNC(=S)NCCCCC(NC(=O)C(Cc1ccccc1)NS(=O)(=O)N1CCOCC1)C(=O)NC(CC1CCCCC1)C(O)CC(=O)NCCN1CCOCC1 (stereo unspecified),2.26
9,CNC(=S)NCCCCC(NC(=O)C(Cc1ccc2ccccc2c1)Cc1cccc2ccccc12)C(=O)NC(CC(C)C)C(O)C(F)(F)C(=O)NCCN1CCOCC1 (stereo unspecified),5.5
10,CC(C)(C)OC(=O)NCC#CCC(NC(=O)C(Cc1ccc2ccccc2c1)Cc1cccc2ccccc12)C(=O)NC(CC1CCCCC1)C(O)CC(=O)NCCN1CCOCC1 (stereo unspecified),6
11,CNC(=S)NCC#CCC(NC(=O)C(Cc1ccc2ccccc2c1)Cc1cccc2ccccc12)C(=O)NC(CC1CCCCC1)C(O)CC(=O)NCCN1CCOCC1 (stereo unspecified),5.44
12,CCC(C)CNC(=O)CC(O)C(CC(C)C)NC(=O)C(CCCn1cccc1)NC(=O)C(Cc1ccc2ccccc2c1)Cc1cccc2ccccc12 (stereo unspecified),7.09
13,N=C(NCC#CCC(NC(=O)C(Cc1cccc2ccccc12)Cc1cccc2ccccc12)C(=O)NC(CC1CCCCC1)C(O)CC(=O)NCCN1CCOCC1)N[N+](=O)[O-] (stereo unspecified),4.73
14,CNC(=S)NCCCCC(NC(=O)C(CC(=O)N1CCOCC1)Cc1cccc2ccccc12)C(=O)NC(CC(C)C)C(O)CC(=O)NCCN1CCOCC1 (stereo unspecified),2.43
15,CCC(C)CNC(=O)CC(O)C(CC(C)C)NC(=O)C(CCCCNC(=S)NC)NC(=O)C(Cc1ccc2ccccc2c1)Cc1cccc2ccccc12 (stereo unspecified),5.71
16,CNC(=S)NCC#CCC(NC(=O)C(Cc1ccccc1)NS(=O)(=O)N1CCOCC1)C(=O)NC(CC1CCCCC1)C(O)CC(=O)NCCN1CCOCC1 (stereo unspecified),2.9
17,CCC(C)CNC(=O)CC(O)C(CC(C)C)NC(=O)C(CC#CCNC(C)=O)NC(=O)C(Cc1ccc2ccccc2c1)Cc1cccc2ccccc12 (stereo unspecified),5.32
18,CCC(C)CNC(=O)CC(O)C(CC(C)C)NC(=O)C(CCCCNP(=O)(Oc1ccccc1)Oc1ccccc1)NC(=O)C(Cc1ccc2ccccc2c1)Cc1cccc2ccccc12 (stereo unspecified),7.88
19,CNC(=S)NCCCCC(NC(=O)C(Cc1ccc2ccccc2c1)Cc1cccc2ccccc12)C(=O)NC(CC(C)C)C(O)CC(=O)NC(CC(C)C)C(=O)NCc1ccccc1 (stereo unspecified),6.7
20,CCC(C)CNC(=O)CC(O)C(CC(C)C)NC(=O)C(CC=CCNC(=S)NC)NC(=O)C(Cc1ccc2ccccc2c1)Cc1cccc2ccccc12 (stereo unspecified),5.23
21,CNC(=S)NCCCCC(NC(=O)C(Cc1ccccc1)NS(=O)(=O)N(C)C)C(=O)NC(CC1CCCCC1)C(O)CC(=O)NCCN1CCOCC1 (stereo unspecified),2.41

row,Compound,logP
1,CNC(=S)NCCCCC(NC(=O)C(CC(=O)N1CCOCC1)Cc1cccc2ccccc12)C(=O)NC(CC1CCCCC1)C(O)CC(=O)NCCN1CCOCC1 (stereo unspecified),1.68
2,CCC(C)CNC(=O)CC(O)C(CC(C)C)NC(=O)C(CCCCNC(C)=O)NC(=O)C(Cc1ccc2ccccc2c1)Cc1cccc2ccccc12 (stereo unspecified),4.38
3,CC(C)CC(NC(=O)CC(O)C(CC(C)C)NC(CCCCNC(=N)N[N+](=O)[O-])NC(=O)C(Cc1ccc2ccccc2c1)Cc1cccc2ccccc12)C(=O)NCc1ccccc1 (stereo unspecified),5.51
4,CNC(=S)NCCCCC(C(=O)NC(CC1CCCCC1)C(O)C(F)(F)C(=O)NCCN1CCOCC1)C(=O)C(Cc1ccccc1)NS(=O)(=O)N1CCOCC1 (stereo unspecified),2.93
5,CC(=O)NCC#CCC(NC(=O)C(Cc1ccccc1)NS(=O)(=O)N1CCOCC1)C(=O)NC(CC1CCCCC1)C(O)CC(=O)NCCN1CCOCC1 (stereo unspecified),2.12
6,O=C(CC(O)C(CC1CCCCC1)NC(=O)C(NC(=O)C(Cc1ccccc1)NS(=O)(=O)N1CCOCC1)C1=CN=N1)NCCN1CCOCC1 (stereo unspecified),2.25
7,CCC(C)CNC(=O)CC(O)C(CC(C)C)NC(=O)C(CCCCCCNC(=S)NC)NC(=O)C(Cc1ccc2ccccc2c1)Cc1cccc2ccccc12 (stereo unspecified),5.64
8,CCC(C)CNC(=O)CC(O)C(CC(C)C)NC(=O)C(CCCCNC(=O)NC)NC(=O)C(Cc1ccc2ccccc2c1)Cc1cccc2ccccc12 (stereo unspecified),5.63
9,CCC(C)CNC(=O)CC(O)C(CC(C)C)NC(=O)C(CCCCNC(=S)Nc1ccccc1)NC(=O)C(Cc1ccc2ccccc2c1)Cc1cccc2ccccc12 (stereo unspecified),6.6
10,CC(C)CC(NC(=O)C(CCCCNC(=O)OCc1ccccc1)NC(=O)C(Cc1ccccc1)NS(=O)(=O)N1CCOCC1)C(=O)C(F)(F)C(=O)NCCN1CCOCC1 (stereo unspecified),2.32
11,CCC(C)CNC(=O)CC(O)C(CC(C)C)NC(=O)C(CCCCN)NC(=O)C(Cc1ccc2ccccc2c1)Cc1cccc2ccccc12 (stereo unspecified),5.25
12,CNC(=S)NCCCCC(NC(=O)C(Cc1ccc2ccccc2c1)Cc1cccc2ccccc12)C(=O)NC(CC(C)C)C(O)CC(=O)NCCN1CCOCC1 (stereo unspecified),3.91
13,CCC(C)CNC(=O)CC(O)C(CC(C)C)NC(=O)C(CC=CCNC(C)=O)NC(=O)C(Cc1ccc2ccccc2c1)Cc1cccc2ccccc12 (stereo unspecified),5.56
14,CCC(C)CNC(=O)CC(O)C(CC(C)C)NC(=O)C(CCCCNS(=O)(=O)c1ccc(C)cc1)NC(=O)C(Cc1ccc2ccccc2c1)Cc1cccc2ccccc12 (stereo unspecified),6.7
15,CCC(C)CNC(=O)CC(O)C(CC(C)C)NC(=O)C(CCCCCNC(=S)NC)NC(=O)C(Cc1ccc2ccccc2c1)Cc1cccc2ccccc12 (stereo unspecified),5.41
16,CCC(C)CNC(=O)CC(O)C(CC(C)C)NC(=O)C(CCCCn1cccc1)NC(=O)C(CC1=Cc2ccccc2C1)Cc1cccc2ccccc12 (stereo unspecified),7.21
17,CC(C)CC(NC(=O)CC(O)C(CC(C)C)NC(=O)C(CCCCNC(=O)OCc1ccccc1)NC(=O)C(Cc1ccc2ccccc2c1)Cc1cccc2ccccc12)C(=O)NCc1ccccc1 (stereo unspecified),7.69
18,CNC(=S)NCCCCC(NC(=O)C(Cc1ccc2ccccc2c1)Cc1cccc2ccccc12)C(=O)NC(CC1CCCCC1)C(O)CC(=O)NCCN1CCOCC1 (stereo unspecified),5.46
19,CC(C)CC(NC(=O)C(CCCCNC(=N)N[N+](=O)[O-])NC(=O)C(CC(=O)N1CCOCC1)Cc1cccc2ccccc12)C(O)CC(=O)NCCN1CCOCC1 (stereo unspecified),1.95
20,CC(C)CC(NC(=O)C(CCCCNC(=N)N[N+](=O)[O-])NC(=O)C(Cc1cccc2ccccc12)Cc1cccc2ccccc12)C(O)CC(=O)NCCN1CCOCC1 (stereo unspecified),4.09
